# Test results as given in ChEMBL document CHEMBL3832078.
# Values joined by “and” are separate entries in the source; they are usually repeats but may differ in a detail not shown here. Equal entries are not always repeated.
# How the values were obtained:
# Assay type in all cases: ADME, organism-based
# Homo sapiens [1] = test: (§1) Pharmacokinetic parameters for Levofloxacin evaluated after oral or IV single dose administration of 250, 500 or 750 mg Levofloxacin to male and/or female subjects of variable age ranges and health status.; set-up: dose 250 mg, dose 500 mg, dose 750 mg, route oral, route iv; settings: in vivo
# [2] = as §1; set-up: dose 250 mg, dose 500 mg, dose 750 mg, route oral, route iv; settings: human, in vivo
# Homo sapiens [3] = test: (§2) Pharmacokinetic parameters for Levofloxacin evaluated after multiple oral or IV administration of 250, 500 or 750 mg Levofloxacin, to male and/or female subjects of variable age ranges and health status.; set-up: dose 500 mg, dose 750 mg, dose 250 mg, route iv, route oral; settings: in vivo
# [4] = as §2; set-up: dose 500 mg, dose 750 mg, dose 250 mg, route iv, route oral; settings: human, in vivo; for CL renal: read-out: CL_renal
compound,measurement,setting,value
C[C@H]1COc2c(N3CCN(C)CC3)c(F)cc3c(=O)c(C(=O)O)cn1c23.C[C@H]1COc2c(N3CCN(C)CC3)c(F)cc3c(=O)c(C(=O)O)cn1c23.O [LEVOFLOXACIN],CL/F,Homo sapiens [1]; iv,175 mL/min and 126 mL/min
same,Vd/F,Homo sapiens [1]; iv,90 L and 75 L
same,t1/2,Homo sapiens [1]; iv,7.5 h
same,Vd/F,Homo sapiens [1]; po,83 L and 89 L and 62 L and 67 L
same,Tmax,[2]; iv,1 h
same,half-life,[2]; iv,6.4 h
same,CL renal,"[2]; iv, read-out: CL_renal",112 mL/min
same,Vd/F,[2]; po,112 L
same,AUC,Homo sapiens [3],72.5 mcg.hr/mL [middle of 5 runs]
same,Cmax,Homo sapiens [3],8.6 mcg/mL [middle of 5 runs]
same,CL/F,Homo sapiens [3]; iv,154 mL/min and 126 mL/min and 158 mL/min
same,Vd/F,Homo sapiens [3]; iv,111 L and 80 L and 91 L
same,t1/2,Homo sapiens [3]; iv,7 h
same,CL/F,Homo sapiens [3]; po,143 mL/min
same,Vd/F,Homo sapiens [3]; po,100 L
same,half-life,[4]; iv,7.9 h
same,CL renal,[4]; iv,99 mL/min
same,CL/F,[4]; po,175 mL/min
same,Tmax,[4]; po,1.4 h
same,Vd/F,[4]; po,102 L
same,half-life,[4]; po,8.8 h
same,CL renal,[4]; po,116 mL/min
